Source: patent US4251520A, “Glucofuranose derivatives” (priority 1976, dated 1981)

Assays:
spasm by histamine = assay: Antispasmodic activity in vitro, spasm by histamine
capillary permeability = assay: Capillary permeability test
[1] = Analgesic activity, protection from writhing; type: in vivo, mouse; settings: po; 500 mg/kg p.o. mouse; read-out: Analgesic activity, protection from writhing %
[2] = tested on: spasms induced by histamine and acetylcholine; assay: Antispasmodic activity tests in vitro (overall)
edema induced by dextran = assay: Anti-inflammatory activity, dextran-induced edema; type: in vivo, rat; settings: po; for inhibition in vivo at 500 mg/kg: 500 mg/kg p.o. rat, read-out: % inhibition of edema induced by dextran
in vivo = settings: mouse, in vivo, po
[3] = tested on: edema induced by carrageenan; assay: Anti-inflammatory activity, carrageenin-induced oedema; type: in vivo, rat; settings: po; 500 mg/kg p.o. rat; read-out: % inhibition of edema induced by carrageenan
Excerpt: Beginning, therefore, with D-glucose, we have prepared 1,2:5,6-di-O-isopropylidene-α-D-glucofuranose (II): [drawing 2] as well as 1,2-O-isopropylidene-α-D-glucofuranose and 1,2-O-isopropylidene-3,5,6-tri-O-benzyl-α-D-glucofuranose (1; Glen W. L., Myers G. S., Grant G. A., J. Chem. Soc., 2568/1951; (2) Meyer A. S., Reichstein T., Helv. Chim. Acta, 29, 139/1946; (3) Huber G., Rossi A., Helv. Chim. Acta, 51, 1185/1968) and have compared these compounds with (I) for anti-inflammatory activity against carrageenin-induced oedema (500 mg/kg, p.o. in rats).

[4] = tested on: edema induced by formalin; assay: Anti-inflammatory activity, formalin-induced edema; type: in vivo, rat; settings: po; for inhibition in vivo at 500 mg/kg: 500 mg/kg p.o. rat, read-out: % inhibition of edema induced by formalin
granuloma = assay: Granuloma cotton pellet test; settings: for inhibition in vivo at 200 mg/kg: Rattus norvegicus, po, read-out: % inhibition of granuloma
[5] = Analgesic activity, hot plate test; type: in vivo, mouse; settings: po; 500 mg/kg p.o. mouse; hot plate test; read-out: Analgesic activity, increase of reaction time %
spasm by acetylcholine = assay: Antispasmodic activity in vitro, spasm by acetylcholine
Antipyretic activity = type: in vivo, rat; settings: for Antipyretic activity (potency in comparison with aspirin = 100): 400 mg/kg p.o. rat; for Antipyretic action (in words): rat, in vivo
[6] = tested on: oedema induced by carrageenin, dextran and formalin; assay: Anti-inflammatory activity tests (oedema by carrageenin, dextran and formalin); type: in vivo; settings: rat
[7] = tested on: edema induced by carrageenan; assay: Anti-inflammatory activity, carrageenin-induced oedema; type: in vivo; settings: po; at a dose of 200 mg/kg p.o., rat (footnote e)
mouse = assay: in vivo; settings: oral route, even at a dose of 4,000 mg./kg.
[8] = at a dose of 400 mg/kg p.o., mouse (footnote d)
[9] = at a dose of 200 mg/kg p.o., rat (footnote e)

| Compound | Antispasmodic activity in vitro, ED50, inhib. of spasm by histamine (spasm by histamine) [µg/mL] | inhibition in vivo at 500 mg/kg [1] [%] | inhibition in vivo at 500 mg/kg (edema induced by dextran) [%] | LD50 (in vivo) [mg/kg] | inhibition in vivo at 500 mg/kg [3] [%] | inhibition in vivo at 500 mg/kg [4] [%] | inhibition in vivo at 200 mg/kg (granuloma) [%] | change in vivo at 500 mg/kg [5] [%] | Antispasmodic activity in vitro, ED50, inhib. of spasm by acetylcholine (spasm by acetylcholine) [µg/mL] | Capillary permeability, decrease % (capillary permeability; 500 mg/kg p.o. mouse) [%] | Antipyretic activity (potency in comparison with aspirin = 100) (Antipyretic activity) [%] | further results |
| --- | --- | --- | --- | --- | --- | --- | --- | --- | --- | --- | --- | --- |
| CC(=O)Oc1ccccc1C(=O)O [Aspirin, reference compound] | > 100 | 100 | 47 | 1000 | 53 | 29 | 12 | 70 | > 100 |  |  | Capillary permeability, decrease % (capillary permeability; [8]): 73%; Antispasmodic activity (in words) [2]: inactive |
| COC1C(C2COC(C)(C)O2)OC2OC(C)(C)OC21 (stereo not shown) [III] | 100 | 20 | 35 | 2000 | 51 | 25 | 0 | 20 | > 100 | 37 | 70 | Antipyretic action (in words) (Antipyretic activity): retained; Anti-inflammatory potency compared with aspirin and phenylbutazone (in words) [6]: as potent as or more potent than aspirin and phenylbutazone; Inhibition of oedema induced by carrageenin, dextran and formalin, compared with (I) (in words) [6]: clearly more active than (I) |
| CCCCC1C(=O)N(c2ccccc2)N(c2ccccc2)C1=O [Phenylbutazone, reference compound] | > 100 | 100 |  |  |  |  | 31 | 10 | > 100 |  | 85 | Capillary permeability, decrease % (capillary permeability; [8]): 75%; Antispasmodic activity (in words) [2]: inactive; inhibition in vivo at 200 mg/kg (edema induced by dextran; [9]): 15%; inhibition in vivo at 200 mg/kg [7]: 52%; inhibition in vivo at 200 mg/kg [4, 9]: 13% |
| CCCCCOC1C(C2COC(C)(C)O2)OC2OC(C)(C)OC21 [VII, 3-n-Pentyl-1,2:5,6-di-O-isopropylidene-α-D-glucofuranose] | > 100 | 20 | 31 | 4000 | 62 | 48 | 19 | 0 | > 100 | 4 | 0 | Inhibitory activity in the granuloma cotton pellet test (in words) (granuloma; rat, in vivo): some inhibitory activity; Anti-inflammatory potency compared with aspirin and phenylbutazone (in words) [6]: as potent as or more potent than aspirin and phenylbutazone; Inhibition of oedema induced by carrageenin, dextran and formalin, compared with (I) (in words) [6]: clearly more active than (I) |
| CCCCCCCCCCCCCCCCOC1C(C2COC(C)(C)O2)OC2OC(C)(C)OC21 (stereo not shown) [VIII] |  | 20 | 0 | > 4000 | 13 | 0 |  | 0 |  | 22 | 0 | Oral toxicity / tolerance (in words) (mouse): well tolerated |
| CC(=O)OC1C(C2COC(C)(C)O2)OC2OC(C)(C)OC21 [XII, 3-Acetyl-1,2:5,6-di-O-isopropylidene-α-D-glucofuranose] | > 100 | 0 | 0 | > 4000 | 21 | 9 |  | 20 | > 100 | 26 | 0 | Oral toxicity / tolerance (in words) (mouse): well tolerated |
| CC1(C)OCC(C2OC3OC(C)(C)OC3C2OCc2ccccc2)O1 (stereo not shown) [XI] | > 100 | 20 | 0 | > 4000 | 39 | 21 |  | 0 | > 100 | 29 | 8 | Oral toxicity / tolerance (in words) (mouse): well tolerated |
| CC1(C)OCC(C2OC3OC(C)(C)OC3C2OCCN2CCCC2)O1 (stereo not shown) [XVIII] | 100 | 0 | 64 | 1500 | 68 | 38 | 0 | 10 | > 100 | 50 | 0 |  |
| CC(C)N(CCOC1C(C2COC(C)(C)O2)OC2OC(C)(C)OC21)C(C)C (stereo not shown) [XVII] | 70 | 40 | 35 | 1000 | 73 | 32 | 0 | 0 | 100 | 32 | 15 |  |
| CCN(CC)CCOC1C(C2COC(C)(C)O2)OC2OC(C)(C)OC21 (stereo not shown) [XV] | 100 | 0 | 58 | 3000 | 60 | 4 | 0 | 10 | > 100 | 20 | 8 |  |
| CC1(C)OCC(C2OC3OC(C)(C)OC3C2OCCN2CCOCC2)O1 (stereo not shown) [XX] | > 100 | 0 | 65 | 1500 | 59 | 43 | 0 | 40 | > 100 | 58 | 14 |  |
| C#CCOC1C(C2COC(C)(C)O2)OC2OC(C)(C)OC21 (stereo not shown) [X] | 50 | 20 | 65 | 1500 | 53 | 36 | 0 | 0 | 50 |  | 107 | Antipyretic action (in words) (Antipyretic activity): retained; Anti-inflammatory potency compared with aspirin and phenylbutazone (in words) [6]: as potent as or more potent than aspirin and phenylbutazone; Inhibition of oedema induced by carrageenin, dextran and formalin, compared with (I) (in words) [6]: clearly more active than (I); Activity against spasms produced by acetylcholine (in words) (spasm by acetylcholine): moderately active |
